According to article PMC8041284, “Tunable Methacrylamides for Covalent Ligand Directed Release Chemistry” (Journal of the American Chemical Society, 2021):
Read-outs that look alike come from different tables or passages of the source.

Target: BTK (Homo sapiens, UniProt Q06187)
Assay: biochemical
[1] = read-out: BTK inhibition (%), 0.75 uM BTK, […] probe 3l, 15 min preincubation

Sequence of BTK (Q06187 402-655 limits assumed): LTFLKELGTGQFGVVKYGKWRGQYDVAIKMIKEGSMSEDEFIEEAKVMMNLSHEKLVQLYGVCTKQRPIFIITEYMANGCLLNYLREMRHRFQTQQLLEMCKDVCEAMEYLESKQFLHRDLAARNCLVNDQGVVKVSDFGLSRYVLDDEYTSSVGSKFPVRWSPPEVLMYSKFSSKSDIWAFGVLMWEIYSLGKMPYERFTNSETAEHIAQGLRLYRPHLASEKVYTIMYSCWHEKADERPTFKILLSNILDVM

SMILES	inhibition at 10 µM [1]	inhibition at 10 µM (read-out: BTK inhibition (%))
C=C1CC[C@H]2[C@@H](/C=C(\C)C(=O)[C@@]3(OC(C)=O)C[C@H](C)[C@H](OC(=O)c4ccccc4)[C@@H]3[C@H]1OC(C)=O)C2(C)C [PCM-0216520]		-20.1%
CC1=C(/C=C/C(C)=C/C=C/C(C)=C/C=C/C=C(C)/C=C/C=C(C)/C=C/C2=C(C)CCCC2(C)C)C(C)(C)CCC1 [PCM-0090171]	24.7%	
Cc1cc(=O)oc2ccc(O)cc12 [PCM-0216279]	17%	
CN(C)CCC=C1c2ccccc2C(C)(C)c2ccccc21 [PCM-0216044]	-10.8%	
CC1(C)S[C@@H]2[C@H](NC(=O)C(c3ccccc3)S(=O)(=O)O)C(=O)N2[C@H]1C(=O)O (stereo partly drawn) [PCM-0216099]	7.7%	
CCN(CC)Cc1ccc2cc(COC(=O)Nc3ccc(C(=O)NO)cc3)ccc2c1 [PCM-0095219]	-10.1%	
CC(C)(CO)[C@@H](O)C(=O)NCCC(=O)NCCSSCCNC(=O)CCNC(=O)[C@H](O)C(C)(C)CO [PCM-0216020]	-28.9%	
CCN1C(=O)CNc2ncc(-c3ccc(-c4ncn[nH]4)nc3C)nc21 [PCM-0215743]	11.7%	
C=C[C@]1(C)C[C@@H](OC(=O)CSC2C[C@H]3CC[C@@H](C2)N3C)[C@]2(C)[C@H](C)CC[C@]3(CCC(=O)[C@H]32)[C@@H](C)[C@@H]1O (stereo partly drawn) [PCM-0095603]	3.9%	
COc1cc(/C=C/C(=O)OC[C@H]2O[C@H](O[C@]3(CO)O[C@H](CO)[C@@H](O)[C@@H]3OC(=O)/C=C/c3cc(OC)c(O)c(OC)c3)[C@H](O)[C@@H](O)[C@@H]2O)cc(OC)c1O [PCM-0216306]	-6.2%	
O=C(O)c1ccc(Nc2ncc3c(n2)-c2ccc(Cl)cc2C(c2c(F)cccc2F)=NC3)cc1 [PCM-0095077]	79.3%	
O=c1c(-c2ccc(O)cc2)coc2cc(O)cc(O)c12 [PCM-0065176]	16.6%	
CCN(CC)c1ccc2c(-c3ccccc3C(=O)O)c3ccc(=[N+](CC)CC)cc-3oc2c1 [PCM-0216592]	85.7%	
CN[C@@H](C)C(=O)N[C@H](C(=O)N1CCC[C@H]1C(=O)N[C@H]1c2ccccc2C[C@H]1OCC#CC#CCO[C@@H]1Cc2ccccc2[C@@H]1NC(=O)[C@@H]1CCCN1C(=O)[C@@H](NC(=O)[C@H](C)NC)C1CCCCC1)C1CCCCC1 [PCM-0215824]	2.6%	
COc1cc(C)c(/C=C/C(C)=C/C=C/C(C)=C/C(=O)O)c(C)c1C [PCM-0086430]	10.9%	
CNS(=O)(=O)CC1CCC(N(C)c2ncnc3[nH]ccc23)CC1 (stereo not drawn) [PCM-0215617]	9.7%	
C=CC(=O)N1CC/C(=C\c2ccc(F)c([N+](=O)[O-])c2)C(=O)/C(=C/c2ccc(F)c([N+](=O)[O-])c2)C1 [PCM-0215820]	31.7%	
O=S(=O)(c1ccc2c(c1)C(=NO)c1cc(S(=O)(=O)N3CCCCC3)ccc1-2)N1CCCCC1 [PCM-0215952]	-18.5%	
CN(C)C(=O)[C@H](O)[C@H](Cc1ccccc1)NC(=O)c1cc2cc(Cl)ccc2[nH]1 [PCM-0065218]	5.4%	

SMILES	inhibition at 10 µM [1]	inhibition at 10 µM (read-out: BTK inhibition (%))
CN1CCN(Cc2ccc(-c3cnc4[nH]cc(-c5ccc6[nH]ccc6c5)c4c3)cc2)CC1 [PCM-0215377]	111%	
Cc1ccc(NC(=O)c2ccc(CN3CCN(C)CC3)cc2)cc1Nc1nc(-c2cccnc2)cs1 [PCM-0094992]	-47.6%	
CCCCC[C@H](O)/C=C/[C@H]1[C@H](O)CC(=O)[C@@H]1C/C=C\CCCC(=O)O [PCM-0215185]	-11.7%	
COCCc1ccc(OCC(O)CNC(C)C)cc1 (stereo not drawn) [PCM-0065348]	17%	
CC(C(=O)Nc1cccc(N=Cc2c(O)ccc3ccccc23)c1)c1ccccc1 (stereo not drawn) [PCM-0215794]	21.6%	
O=C(O)c1cn(-c2ccc(F)cc2)c2cc(N3CCNCC3)c(F)cc2c1=O [PCM-0086286]	-3.4%	
COc1ccc(-c2oc3c(CC=C(C)C)c(O[C@@H]4O[C@H](CO)[C@@H](O)[C@H](O)[C@H]4O)cc(O)c3c(=O)c2O[C@@H]2O[C@@H](C)[C@H](O)[C@@H](O)[C@H]2O)cc1 [PCM-0094858]	-0.8%	
Cc1cc(-c2ncc(CC(=O)Nc3ccc(-c4cnccn4)cn3)cc2C)ccn1 [PCM-0215274]	1.5%	
O=C(c1ccc(OCCCc2cnc[nH]2)cc1)C1CC1 [PCM-0065087]	-14.5%	
Fc1ccc(Cn2c(Cl)nc3ccccc32)cc1 [PCM-0216108]	-52.5%	
C[C@@H]1Cc2c([nH]c3ccccc23)[C@@H](c2c(F)cc(/C=C/C(=O)O)cc2F)N1CC(C)(C)F [PCM-0215727]	30.9%	
C[C@@]12C[C@@]3(O)O[C@@H](O1)[C@]1(COC(=O)c4ccccc4)[C@H]3C[C@@]12O[C@@H]1O[C@H](COC(=O)c2ccccc2)[C@@H](O)[C@H](O)[C@H]1O [PCM-0216426]	-18.5%	
C[C@@H]1CC[C@@]2(OC1)O[C@H]1C[C@H]3[C@@H]4CC=C5C[C@@H](O[C@@H]6O[C@H](CO)[C@@H](O[C@@H]7O[C@@H](CO)[C@H](O)[C@H]7O)[C@H](O)[C@H]6O[C@@H]6O[C@@H](C)[C@H](O)[C@@H](O)[C@H]6O)CC[C@]5(C)[C@H]4CC[C@]3(C)[C@H]1[C@@H]2C [PCM-0216403]	-10%	
CNC(=O)[C@H](Cc1c[nH]c2ccccc12)NC(=O)[C@@H](CC(=O)NO)CC(C)C [PCM-0095723]	19.3%	
CCN(CCO)CCCOc1ccc2c(Nc3cc(CC(=O)Nc4cccc(F)c4)[nH]n3)ncnc2c1 [PCM-0094969]	66.9%	
O=c1oc2c(O)c(O)cc3c(=O)oc4c(O)c(O)cc1c4c23 [PCM-0090664]	15.3%	
COc1ccc2c(c1O)-c1c(O)c(OC)cc3c1[C@H](C2)[N+](C)(C)CC3 [PCM-0216382]	-1.5%	
CCCN1C[C@H](CSC)C[C@@H]2c3cccc4[nH]cc(c34)C[C@H]21 [PCM-0065439]	-1.6%	

Now from value to compound, other results behind:

inhibition at 10 µM [1]	SMILES	inhibition at 10 µM (read-out: BTK inhibition (%))
-6.2%	Cc1nc2cc(F)c(F)cc2n1-c1cncc(Nc2ccc(C(F)(F)F)cc2)n1 [PCM-0215953]	
-20.2%	CNC[C@H](O)c1cccc(O)c1 [PCM-0064848]	
-1.6%	N=C(N)c1ccc2cc(OC(=O)c3ccc(N=C(N)N)cc3)ccc2c1 [PCM-0095060]	
3.1%	O=C[C@H](O)[C@@H](O)[C@H](O[C@H]1O[C@H](CO)[C@@H](O[C@H]2O[C@H](CO)[C@@H](O[C@H]3O[C@H](CO)[C@@H](O[C@H]4O[C@H](CO)[C@@H](O)[C@H](O)[C@H]4O)[C@H](O)[C@H]3O)[C@H](O)[C@H]2O)[C@H](O)[C@H]1O)[C@H](O)CO [PCM-0216396]	
24.1%	CCOc1nc2cccc(C(=O)OCc3oc(=O)oc3C)c2n1Cc1ccc(-c2ccccc2-c2noc(=O)[nH]2)cc1 [PCM-0090373]	
58.6%	COc1cc(CCc2cc(NC(=O)c3ccc(N4C[C@@H](C)N[C@@H](C)C4)cc3)n[nH]2)cc(OC)c1 [PCM-0095396]	
5.5%	CC(C)(C)c1cc(O)ccc1O [PCM-0215107]	
-10.9%	O=c1[nH]c(=O)c2[nH]cnc2[nH]1 [PCM-0214891]	
-6.9%	Cc1ccc2c(c1)C(=O)[C@]1(O)CCN(c3ccccc3)C1=N2 [PCM-0095585]	
1.7%	NC(CO)C(=O)O (stereo not drawn) [PCM-0216194]	
-17.9%	CC(C(=O)O)c1cccc(C(=O)c2ccccc2)c1 (stereo not drawn) [PCM-0065500]	
79.5%	CNCc1ccc(C)c(NC(=O)c2ccc(Nc3nc(-c4ccccc4)c4ccccc4n3)cc2)c1 [PCM-0095748]	
-10.1%	Cc1cc(O)cc(O[C@@H]2O[C@H](CO)[C@@H](O)[C@H](O)[C@H]2O)c1 [PCM-0214958]	
-4.8%	CC(C)(C)NS(=O)(=O)c1cncc(-c2cc(F)c3nc(N)nn3c2)c1 [PCM-0215240]	
-11%	CO[C@@H](C)Cn1c(=O)n(C)c2cnc3ccc(-c4cncc(C(C)(C)O)c4)cc3c21 [PCM-0215675]	
19.3%	N#Cc1ccc(-c2c(-c3ncn[nH]3)sc(N3CCOCC3)c2C#N)c(F)c1 [PCM-0215501]	

inhibition at 10 µM [1]	SMILES	inhibition at 10 µM (read-out: BTK inhibition (%))
15.4%	CC1(C)CCC[C@]2(C)[C@H]3CCO[C@]3(C)CC[C@@H]12 [PCM-0215965]	
20.7%	CC1=C[C@@]2(O)O[C@@]3(CC2=C(C)C)[C@@H](C)CC[C@@H]13 [PCM-0214997]	
-10%	CCOC(=O)[C@H](CCc1ccccc1)N[C@@H](C)C(=O)N(CC(=O)O)C1Cc2ccccc2C1 [PCM-0216640]	
6.2%	CN1CCN(c2ccc(-c3ccncc3-c3cc(F)c(O)c(F)c3)cc2)CC1 [PCM-0215608]	
4.6%	CCCC(=O)Nc1ncnc2c1ncn2[C@@H]1O[C@@H]2COP(=O)(O)O[C@H]2[C@H]1OC(=O)CCC [PCM-0215503]	
-5.5%	Oc1ncnc2[nH]ncc12 [PCM-0064482]	
13.9%	COc1cccc(/C=N/N(C(=O)C(F)(F)F)c2ccc(C)cc2C)c1 [PCM-0216073]	
16.2%	CC(/C=C/C=C(\C)C(=O)O[C@@H]1O[C@H](CO)[C@@H](O)[C@H](O)[C@H]1O)=C\C=C\C=C(C)\C=C\C=C(/C)C(=O)O[C@@H]1O[C@H](CO[C@@H]2O[C@H](CO)[C@@H](O)[C@H](O)[C@H]2O)[C@@H](O)[C@H](O)[C@H]1O [PCM-0216484]	
-3.1%	CCC[C@H](NC(=O)[C@@H]1[C@H]2CCC[C@H]2CN1C(=O)[C@@H](NC(=O)[C@@H](NC(=O)c1cnccn1)C1CCCCC1)C(C)(C)C)C(=O)C(=O)NC1CC1 [PCM-0214791]	
-4.8%	c1ccc(NCc2ccc(CNc3ccccn3)cc2)nc1 [PCM-0095395]	
-21%	CC(=O)Oc1cccc2ccccc12 [PCM-0215066]	
-14%	NC(CO)C(=O)NNCc1ccc(O)c(O)c1O (stereo not drawn) [PCM-0064697]	
-12.5%	CCN1CCN(C(=O)N[C@@H](C(=O)N[C@@H]2C(=O)N3C(C(=O)O)=C(CSc4nnnn4C)CS[C@H]23)c2ccc(O)cc2)C(=O)C1=O [PCM-0085943]	
-15.2%	C[C@@H](Nc1cc(F)cc(F)c1)c1cc(C(=O)N(C)C)cc2c(=O)cc(N3CCOCC3)oc12 [PCM-0215502]	
7.6%	Cc1cnc(NC(=O)Nc2cc(Br)c(C)cc2OC[C@@H]2CNCCO2)cn1 [PCM-0095485]	
-13.2%	C/C(=C\CNc1ncnc2nc[nH]c12)CO [PCM-0215137]	
